Experimental data from patent US20230399374A1, “Compounds, Compositions and Methods of Use to Treat Bone Fractures” (PURDUE RESEARCH FOUNDATION, priority 2020, published 2023).
Non-standard residues stand in square brackets, D forms with d. No end group written: not given here. Aib = CC(C)(N)C(=O)O

Key:
midshaft femur fracture = test: Pain/function outcomes, locomotor open-field testing after midshaft femur fracture; format: in vivo, mice; settings: for pain/function outcomes, well-being in the open field: 5 weeks post-fracture, measured once a week
Experimental: Pain/function outcomes in mice were accessed by turning to behavioral testing. Allodynia was evaluated using Von Frey probes, whereas gain was evaluated using DigiGait, functionality was evaluated using running wheels, and anxiety coupled with functionality was evaluated using locomotor open-field testing. Open-field locomotor testing afforded the most consistent measurements.
Mice were habituated to the behavior room for 30-60 minutes before testing locomotor activity. Animals were habituated once for 10 minutes to the locomotor boxes prior to the start of the experiment. They were then placed individually in a locomotor box with infrared light tracking beams for 10 minutes before being removed and placed back in their home cage. The mice were tracked via EthoVision using 3-point directionality testing. Mice were measured for two weeks prior to the experiment. They then underwent the midshaft femur fracture model and were assigned to one of three treatment groups: 1) abaloparatide DE20 twice a week; 2) phosphate buffered saline twice a week; or 3) ibuprofen (0.6 g/L) in their water. The mice were treated for 5 weeks post-fracture and measured once a week.
For FIGS. 26-28, day 0 represents the baseline data pre-fracture. Saline and SEQ ID NO: 4 (1 nmol) were injected twice/week. Ibuprofen was administered constantly in the mice's water at a concentration of 0.6 g/L.

[1] = parameters: species or system mice; settings: mouse, in vivo, sc
Text: (§1) SEQ ID NO: 4 was subcutaneously injected into fracture-bearing mice. […] The results are shown in FIG. 30, which is a graph of hours vs. percent injected dose in blood (cpm/g) of mice with midshaft femoral factures. […] The results are shown in FIG. 31, which is a graph of hours vs. percent injected dose in bone (cpm/g) of mice with midshaft femoral factures.

[2] = test system: fracture site (fractured femur); parameters: species or system mice; settings: mouse, in vivo; for cumulative residence time (AUC) at the fracture site / half-life at the fracture site: sc
Text: as §1

[3] = test system: midshaft femoral fractures; test: Midshaft femur fracture healing in otherwise healthy mice (micro-CT, bend to failure); format: in vivo; settings: for bone deposition in CT images: three weeks after initiation of treatment, FIG. 35
Text: In some instances, elevated accumulation of SEQ ID NO: 4 at the fracture site improves fracture healing (e.g., FIGS. 26-30). In some instances, femur fracture healing times following administration of a starting dose calculated by allometric scaling of the human dose prescribed for abaloparatide (SEQ ID NO: 2) treatment of osteoporosis are compared.
Bone morphometric analyses confirmed a 1.5-fold increase in the ratio of mineralized volume (bone volume; BV) to total bone volume (total volume; TV) in the SEQ ID NO: 4-treated mice.
In some instances, such as, to establish whether the observed increase in bone deposition translates into an improvement in mechanical properties, the force required to bend the healed femurs until they fractured again was measured.
In some instances, the force to fracture in the SEQ ID NO: 4-treated mice exceeded that required to fracture the contralateral healthy femurs in the same mice or similar, unmodified femurs in saline-treated mice.
The length of the targeting oligopeptide was increased to determine if it increased the drug's affinity for broken bone sufficiently that retention of the anabolic payload at the fracture site would be prolonged and less frequent dosing may be required. Mice were doses once every three days, rather than daily. […] The results are shown in FIG. 34, which is a graph of treatment (saline, SEQ ID NO: 3 (0.1 nmol/mg (0.1×), 1 nmol/mg (1×), and 10 nmol/mg (10×), and SEQ ID NO: 4 (0.1 nmol/mg (0.1×), 1 nmol/mg (1×), and 10 nmol/mg (10×)) vs. max load (N) of mice with midshaft femoral factures.

[4] = test system: type I diabetic femur fracture; format: in vivo; settings: for callus mineralization (BV) and bone density (BV/TV): four weeks of treatment, micro-CT, FIG. 13 and 14; for strength of the fractures (max load, work to fracture): four weeks, 4-point bend, FIG. 15 and 16
Experimental: (§2) Targeted conjugates of SEQ ID NO: 5, abaloparatide (SEQ ID NO: 2), SEQ ID NO: 6, and SEQ ID NO: 9 (a conjugate with 10 aspartic acid residues) were synthesized using Fmoc solid-phase peptide synthesis. From SEQ ID NO: 5, amino acids 1-34 were used, and abaloparatide (SEQ ID NO: 2) is a stabilized version of amino acids 1-36 of SEQ ID NO: 1. Diabetes was induced in 40 8-week-old male CD-1 mice via seven subcutaneous injections of streptozotocin (STZ) until blood sugar readings were above 250 mg/dL. The mice were left in this confirmed diabetic state for 2 months to allow the diabetes to take effect on the bones. Then, aseptic surgical techniques were used to place a 23-gauge needle as an intramedullary nail in the femur of the anesthetized mice for internal fixation before fracture was induced with a drop-weight fracture device from RISystem and confirmed by x-ray. The mice received buprenorphine for three days post-fracture. They were dosed subcutaneously with a positive control of insulin, a negative control of vehicle, SEQ ID NO: 5, or abaloparatide (SEQ ID NO: 2) each day for 4 weeks. Fracture healing was assessed qualitatively using micro-CT (Scanco Medical Ag). Fractured femurs were tested for strength in a 4-point-bend-to-failure using an ElectroForce TestBench (TA Instruments, New Castle, DE). Maximum load, stiffness, displacement post-yield, and work-to-fracture data were generated. Statistical analysis was performed using a one-way analysis of variance (ANOVA) with significance reported with p values less than 0.05 (*) and 0.01 (**).
Four compounds were tested. […] Abaloparatide (SEQ ID NO: 2) is a stabilized version of parathyroid-related protein hormone. Dasatinib is an […] with off-target effects on both osteoblasts and osteoclasts that improve overall bone density. Dasatinib has also proven to be a senolytic. ITGA is a fibronectin mimetic that promotes intramembranous bone fracture healing. […] Therefore, it was hypothesized that the glucose regulating properties of full-length SEQ ID NO: 5 may be beneficial in healing type I diabetic fractures as a dual-action compound that may improve healing via two mechanisms. The compounds were compared against insulin as a positive control and saline as a negative control.
BV represents the bone volume of the 100 thickest micro-CT slices of the fracture callus and is a measure of how much bone has mineralized at the site of fracture repair. BV/TV represents the BV divided by TV of the 100 thickest micro-CT slides of the fracture callus and is a measure of how dense the bone is at the site of fracture repair. Insulin was dosed as 2 IU/day. Doses of 0.1×, 50×, and 10×, are […], and 10 nmol, respectively, of the conjugate delivered daily by subcutaneous injection. SEQ ID NO: 6 was dosed at 10 μmol/kg every other day.
Insulin was dosed at 2 IU/day. Doses of 0.1×, 50×, and 10×, are 0.1 nmol, 50 nmol, and […], of the conjugate delivered daily by subcutaneous injection. SEQ ID NO: 6 was dosed at 10 μmol/kg every other day.

[5] = test system: type I diabetic femur fracture; test: Fracture repair model, type I diabetes, compounds dosed in conjunction with insulin; format: in vivo, mice; settings: with insulin 2 IU/day; for strength (maximum force, work to fracture, modulus): significance relative to insulin-treated group, FIG. 22A-C
Experimental: as §2
However, since […] patients will not stop taking their insulin to take a compound provided herein, the experiment was repeated with compounds dosed in conjunction with insulin (FIGS. 20-22). […]
For FIGS. 22A-22C, insulin was dosed at 2 IU/day in all groups, except for saline. […] All significance levels were calculated relative to the insulin-treated group, not the saline control group. […]

[6] = dosed once every three days, FIG. 34

Compound: CC(C)Cc1ccc(C(C)C(=O)O)cc1 (stereo not drawn) [ibuprofen, reference compound]
- pain/function outcomes, well-being in the open field (midshaft femur fracture): did not improve their pain/function outcomes

Compound: AVSEHQLLHDKGKSIQDLRRRELLEKLLxKLHTAEIRATSEVSPNSeeeeeeeeeeeeeeeeeeee [SEQ ID NO: 4]
- circulation half-life [1]: 3.7 h
- cumulative systemic exposure (AUC) [1]: 20 h
- cumulative residence time (AUC) at the fracture site relative to abaloparatide [2]: 11 fold
- residence time in the contralateral femur, fold lower than in the fractured femur [2]: 8 fold
- cumulative residence time (AUC) at the fracture site [2]: 96 h
- half-life at the fracture site [2]: 67 h
- maximum load relative to free abaloparatide-treated femurs ([3]; FIG. 32): 2.5 fold
- work to fracture relative to abaloparatide-treated femurs ([3]; FIG. 33): 3.5 fold
- max load compared to saline (significance) [3, 6]: significantly higher
- maximum load before breakage, abalode 20 versus abalode 10, greater strength ([3]; dosed once every three days, trend, FIG. 34): 20-30%
- relative effectiveness at improving bone healing ([3]; mouse, in vivo): more effective (e.g., at improving bone healing) than SEQ ID NO: 3
- time at which bones return to their previous unbroken strength ([3]; mouse, in vivo): between two and three weeks post-fracture
- bone deposition in CT images [3]: distributed (e.g., more) evenly across the fractured area
- morphometric basis of the increase in bone density ([3]; three weeks of therapy): primarily due to a reduction in trabecular spacing, rather than an increase in trabecular thickness
- increase in the ratio of bone volume to total volume (BV/TV) ([3]; three weeks of therapy, compared with abaloparatide-treated mice): 1.5 fold
- strength of repaired femurs above original unbroken femurs ([3]; versus contralateral healthy femurs): 30%
- distance traveled in 10 minutes (midshaft femur fracture; 1 nmol twice/week, FIG. 26): began to run farther
- time spent moving in 10 minutes (midshaft femur fracture; 1 nmol twice/week, FIG. 27): began to run for longer periods of time
- mean velocity in 10 minutes (midshaft femur fracture; 1 nmol twice/week, FIG. 28): began to run faster
- pain/function outcomes, well-being in the open field (midshaft femur fracture): more functionality and better well-being

Compound: SEQ ID NO: 3: SEQ ID NO: 15 (AVSEHQLLHDKGKSIQDLRRRELLEKLLxKLHTAEIRATSEVSPNS) followed by eeeeeeeeee, e = D-glutamic acid (AVSEHQLLHDKGKSIQDLRRRELLEKLL[Aib]KLHTAEIRATSEVSPNS[dE][dE][dE][dE][dE][dE][dE][dE][dE][dE])
- max load compared to saline (significance) [3, 6]: lacked significance when dosed every three days
- healing in healthy femur fractures ([3]; mouse, in vivo): repeatedly accelerated healing in healthy femur fractures
- relative effectiveness at improving bone healing ([3]; mouse, in vivo): better than abaloparatide

Compound: SEQ ID NO: 6: a targeted conjugate of dasatinib (e.g., D10-ester-dasatinib) ({ester‑dasatinib}-DDDDDDDDDD)
- healing in healthy femur fractures ([3]; mouse, in vivo): repeatedly accelerated healing in healthy femur fractures
- callus mineralization (BV) and bone density (BV/TV) [4]: without improving the callus mineralization
- strength of the fractures (max load, work to fracture) [4]: improved strength
- change in body mass ([4]; mouse, in vivo): lost weight
- toxicity (in words) ([4]; mouse, in vivo): exhibited some toxicity at higher doses

Compound: SEQ ID NO: 7: ITGA (fibronectin mimetic cyclic peptide 101) conjugated with 10 glutamic acid residues (HEEEEEEEEEERRETAWA; also: cyclic, ring not given here)
- healing in healthy femur fractures ([3]; mouse, in vivo): repeatedly accelerated healing in healthy femur fractures

Compound: SEQ ID NO: 8: cyclic peptide 102, a conjugate with 10 glutamic acid residues (HEEEEEEEEEERRETAWA; also: cyclic, ring not given here)
- mineralization of the callus (bone volume) ([5]; four weeks, FIG. 20A): improved the mineralization of the callus better than insulin
- strength (maximum force, work to fracture, modulus) [5]: significantly improved the strength compared to the insulin control

Compound: abaloparatide [SEQ ID NO: 2, reference compound]
- circulation half-life [1]: 4.2 h
- cumulative systemic exposure (AUC) [1]: 24.4 h
- cumulative residence time (AUC) at the fracture site [2]: 8 h
- half-life at the fracture site [2]: 8.8 h
- bone deposition in CT images [3]: concentrated on the periphery of the fracture, with minimal density bridging the opposing calluses
- callus mineralization (BV) and bone density (BV/TV) [4]: impacting density the most
- strength (maximum force, work to fracture, modulus) [5]: significantly improved the strength compared to the insulin control

Compound: insulin [reference compound]
- callus mineralization (BV) and bone density (BV/TV) [4]: improvement in mineralization
- strength of the fractures (max load, work to fracture) [4]: not able to restore the quality of the bone
- blood sugar levels ([4]; four-week treatment period, FIG. 18): the only compound to improve blood sugar levels
